Laboratory results: US20250382556A1, “MODULATION OF THE BRANCHED-CHAIN METABOLITE CONTENT OF FRUITS AND VEGETABLES” (BOARD OF TRUSTEES OF MICHIGAN STATE UNIVERSITY, priority 2024, published 2025)

Test system: apple peel
Assay: Free amino acid content of apple peel via UPLC-MS/MS after AHAS inhibitor treatment
Assay type: in vivo, Malus x domestica Borkh.
Set-up: key to free asparagine content compared to control / free aspartate content compared to control / free cysteine content compared to control / free glutamate content compared to control / free glutamine content compared to control / free glycine content compared to control / free histidine content compared to control / free lysine content compared to control / free methionine content compared to control / free phenylalanine content compared to control / free serine content compared to control / free threonine content compared to control / free tryptophan content compared to control / free tyrosine content compared to control / free valine content compared to control / total free amino acid content compared to control / free alanine content compared to control / free arginine content compared to control: —: Dash indicates no significant difference between treatments
Conditions: for free alanine content compared to control / free arginine content compared to control / free asparagine content compared to control / free aspartate content compared to control / free cysteine content compared to control / free glutamate content compared to control / free glutamine content compared to control / free glycine content compared to control / free histidine content compared to control / free isoleucine content compared to control / free leucine content compared to control / free lysine content compared to control / free methionine content compared to control / free phenylalanine content compared to control / free serine content compared to control / free threonine content compared to control / free tryptophan content compared to control / free tyrosine content compared to control / free valine content compared to control / total free amino acid content compared to control: 1 mM daily
Experimental: Whole apple fruit, freshly harvested and at an early stage of ripening (‘ripening’), were held at room temperature (22° C.) and rubbed daily with 3 mL of a freshly made 1mM solution of the inhibitor rimsulfuron (N-((4,6-dimethoxypyrimidin-2-yl)aminocarbonyl)-3-(ethylsulfonyl)-2-pyridinesulfonamide, made from DuPont MATRIX® SG, 25% w/w active ingredient; 0.1% Tween 20) or water solution containing 0.1% Tween 20 before preparation with further treatments. Flowering quince fruit were smaller than the apple fruit and had 2 mL of the control and treatment solutions applied daily at 22° C. ‘Gala’, ‘Empire’, and ‘Jonagold’ apple fruit were treated for four, nine, and seven days before further preparation, respectively. Flowering quince fruit were treated for six days before analysis. Headspace volatile emissions were monitored for three or four representative fruits during the incubation/treatment period to determine appropriate times for further treatments. During method testing, 1 mM solutions of the imidazolinone imazamox was also assessed with apple fruit (2-[4,5-dihydro-4-methyl-4-(1-methylethyl)-5-oxo-1H-imidazol-2-yl]-5-(methoxymethyl)-3-pyridinecarboxylic acid, made from RAPTOR®, 12.1% w/w active ingredient; 0.1% Tween 20).
After volatile analysis, apple peel disks, collected peel of flowering quince, and ‘Valery’ pulp section samples were held at −80° C. for further amino acid analysis.
Frozen samples were ground to a powder in liquid nitrogen-chilled mortar and pestles. About 500 mg of tissue was vortexed for 10 sec in 2 mL of room temperature (22° C.) extraction solution (1:1:1 water:acetonitrile:ethanol, v/v/v) spiked with 2 nmoles of U-^13C,^15N labeled amino acids (MilliporeSigma) as internal standards and heated for 15 min in a 65° C. water bath. Extracts were briefly chilled on ice before centrifugation at 4400×g for 15 min at 4° C. The supernatant was filtered by centrifugation (0.2 μm nylon centrifugal filter; Costar, Corning) at 21000×g for 5 min at room temperature. 10 μL of the filtrate was transferred to an autosampler vial and diluted 100-fold with 990 μL of 10.1 mM perfluorohexanoic acid (PFHA) spiked with […] of internal standard. Thus the final concentration of internal standard was ˜2 μM.
An amino acid standard series was prepared from a premade mixture (MilliporeSigma, AAS18) that contained equal molar amounts of cystine and all 20 proteinogenic amino acids save for tryptophan, asparagine, glutamine, and cysteine. An equal molar mixture of tryptophan, asparagine, glutamine, and cysteine was subsequently prepared. To avoid dilution errors or artefacts from differing buffers, these amino acid stocks were aliquoted and desiccated such that a five-part standard series ranging from 250 μM to 25 nM would be produced upon resuscitation with 10 μL of spiked extraction buffer and 990 μL spiked PFHA solution.
Samples and amino acids were held overnight at −20° C. before analysis. Amino acids were analyzed with a Xevo TQ-S Micro UPLC (H-Class)-MS/MS (Waters) at the Michigan State University Mass Spectrometry and Metabolomics Core. Conditions were as follows. HPLC column: Acquirt UPLC HSS T3, 2.1×100 mm, 1.7 μm particle size (Waters), with a 0.2 μm pre-column filter (Waters). Mobile phase: A) 10 mM PFHA in water, B) acetonitrile. LC gradient: linear gradient, slope setting=6, flow rate=0.3 mL·min^−1, step 1) 0 min, 100% A, 0% B, 2) 1 min, 100% A, 0% B, 3) 8 min, 35% A, 65% B, 4) 8.01 min, 10% A, 90% B, 5) 9 min, 10% A, 90% B, 6) 9.01 min, 100% A, 0% B, 7) 13 min, 100% A, 0% B. Column temp: 40° C. Autosampler temp: 10° C. Injection volume: 10 μL. Tune parameters: electrospray ionization, standard ESI probe, capillary voltage=+1.0 kV, source temp=120° C., desolvation temp=350° C., desolvation gas=800 L·hr^−1, cone gas=40 L·hr^−1. MS collection was split into three phases and were adjusted after checking the retention time of several samples; however proline was missed for apple and flowering quince samples. […]

[1] = ripening Empire apple peel, nine days
[2] = ripening Gala apple peel, four days
[3] = ripening Jonagold apple peel, seven days

Structure (SMILES): CCS(=O)(=O)c1cccnc1S(=O)(=O)NC(=O)Nc1nc(OC)cc(OC)n1 [rimsulfuron, N-((4,6-dimethoxypyrimidin-2-yl)aminocarbonyl)-3-(ethylsulfonyl)-2-pyridinesulfonamide]
- free alanine content compared to control [1]: —
- free arginine content compared to control [1]: —
- free asparagine content compared to control [1]: —
- free aspartate content compared to control [1]: —
- free cysteine content compared to control [1]: 261.5 ± 32.5%
- free glutamate content compared to control [1]: —
- free glutamine content compared to control [1]: —
- free glycine content compared to control [1]: —
- free histidine content compared to control [1]: —
- free isoleucine content compared to control [1]: 3.3 ± 0.7%
- free leucine content compared to control [1]: 422.8 ± 100.1%
- free lysine content compared to control [1]: —
- free methionine content compared to control [1]: 212.7 ± 26.8%
- free phenylalanine content compared to control [1]: —
- free serine content compared to control [1]: —
- free threonine content compared to control [1]: —
- free tryptophan content compared to control [1]: —
- free tyrosine content compared to control [1]: —
- free valine content compared to control [1]: —
- total free amino acid content compared to control [1]: —
- free alanine content compared to control [2]: 273.4 ± 27.4%
- free arginine content compared to control [2]: —
- free asparagine content compared to control [2]: —
- free aspartate content compared to control [2]: 231.8 ± 18.0%
- free cysteine content compared to control [2]: —
- free glutamate content compared to control [2]: 146.3 ± 5.6%
- free glutamine content compared to control [2]: 250.7 ± 33.5%
- free glycine content compared to control [2]: —
- free histidine content compared to control [2]: —
- free isoleucine content compared to control [2]: 16.4 ± 6.3%
- free leucine content compared to control [2]: 214.4 ± 42.2%
- free lysine content compared to control [2]: —
- free methionine content compared to control [2]: —
- free phenylalanine content compared to control [2]: —
- free serine content compared to control [2]: 300.1 ± 27.7%
- free threonine content compared to control [2]: 182.3 ± 14.2%
- free tryptophan content compared to control [2]: —
- free tyrosine content compared to control [2]: —
- free valine content compared to control [2]: —
- total free amino acid content compared to control [2]: 191.5 ± 20.4%
- valine following treatment (ripening Gala, Empire, Jonagold peels): unaffected
- free alanine content compared to control [3]: —
- free arginine content compared to control [3]: —
- free asparagine content compared to control [3]: —
- free aspartate content compared to control [3]: —
- free cysteine content compared to control [3]: 410.6 ± 49.6%
- free glutamate content compared to control [3]: —
- free glutamine content compared to control [3]: —
- free glycine content compared to control [3]: —
- free histidine content compared to control [3]: —
- free isoleucine content compared to control [3]: 4.1 ± 1.3%
- free leucine content compared to control [3]: 393.2 ± 74.4%
- free lysine content compared to control [3]: —
- free methionine content compared to control [3]: 218.3 ± 31.0%
- free phenylalanine content compared to control [3]: —
- free serine content compared to control [3]: 191.9 ± 32.1%
- free threonine content compared to control [3]: —
- free tryptophan content compared to control [3]: —
- free tyrosine content compared to control [3]: —
- free valine content compared to control [3]: —
- total free amino acid content compared to control [3]: —
- reduction of isoleucine in the peels (ripening fruit of the three cultivars (Gala, Empire, Jonagold), on average): 92.1%
- increase of leucine content (three ripening cultivars, on average): 3.4 fold
